Patent US9155714B2, “Compositions comprising an aromatic alcohol and a TRPV-1 antagonist, and uses thereof” (JOHNSON & JOHNSON CONSUMER INC., priority 2013, dated 2015)
“And” between values parts separate entries of the source, which are not always exact repeats. Equal entries are not always repeated.

Key:
Assay type in all cases: cell-based
[1] = molecular target: T1, human vanilloid receptor-1 (TRPV-1) (Homo sapiens, UniProt Q8NER1); assay: Calcium Flux Test, inhibition of phenoxyethanol-induced calcium flux
T1 construct: host or cells: HEK293
T1 sequence (Q8NER1 whole entry): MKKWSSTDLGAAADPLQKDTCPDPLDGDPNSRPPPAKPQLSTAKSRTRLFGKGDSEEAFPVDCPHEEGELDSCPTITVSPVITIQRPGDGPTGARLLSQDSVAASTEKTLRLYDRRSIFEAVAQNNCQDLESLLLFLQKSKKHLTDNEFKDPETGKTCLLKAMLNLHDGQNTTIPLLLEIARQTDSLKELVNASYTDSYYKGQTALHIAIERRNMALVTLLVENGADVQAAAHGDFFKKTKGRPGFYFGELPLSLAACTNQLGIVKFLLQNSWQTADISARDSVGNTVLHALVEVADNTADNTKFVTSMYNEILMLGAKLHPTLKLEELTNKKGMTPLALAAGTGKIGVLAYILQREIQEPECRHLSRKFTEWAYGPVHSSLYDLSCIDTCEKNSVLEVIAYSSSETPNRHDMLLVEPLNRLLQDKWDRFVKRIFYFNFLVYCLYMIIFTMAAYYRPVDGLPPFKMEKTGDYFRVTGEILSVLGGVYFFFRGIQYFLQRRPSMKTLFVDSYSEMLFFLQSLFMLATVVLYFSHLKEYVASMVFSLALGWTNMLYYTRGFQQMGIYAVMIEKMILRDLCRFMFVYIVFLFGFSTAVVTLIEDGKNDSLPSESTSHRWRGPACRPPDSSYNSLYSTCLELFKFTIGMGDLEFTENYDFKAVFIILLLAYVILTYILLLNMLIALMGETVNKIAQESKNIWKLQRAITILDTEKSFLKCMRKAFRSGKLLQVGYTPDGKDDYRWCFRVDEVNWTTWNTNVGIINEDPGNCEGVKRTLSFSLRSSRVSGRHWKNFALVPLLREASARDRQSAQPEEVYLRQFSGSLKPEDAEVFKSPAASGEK
Method: (§1) The Calcium Flux Test is performed in the following manner: Recombinant HEK293 cells expressing human vanilloid receptor-1 (TRPV-1; accession number AF196175, EMD Millipore, Billerica, Mass.) are grown in D-MEM/F-12 media (Life Technologies, Grand Island, N.Y.) supplemented with 10% fetal bovine serum, 1% non essential amino acids and 400 μg/mL Geneticin (Gibco, Life Technologies). Cells are plated at a concentration of 15,000 cells per well on poly-D-lysine-coated 384 well plates and incubated overnight at 5% CO2 and 37° C. After incubation, culture media is removed from the wells and replaced with 50 μL per well of Fluo-8 No Wash dye solution (#36315, AAT Bioquest, Sunnyvale, Calif.). The Fluo-8 dye solution is prepared by mixing 20 uL of Fluo-8 NW with 30 mL of 0.33× Pluronic® F127 Plus (BASF of Ludwigshafen, Germany) in assay buffer (1×HBSS+2% of HEPES). Fluo-8 dye is incubated for 30 minutes at room temperature. Intracellular calcium (Ca^2+) flux is monitored upon exposure to aromatic alcohol in DMSO vehicle by measuring fluorescence intensity at Ex/Em 490/525 on a Functional Drug Screening System (FDSS; Hamamatsu, […]). Measurements are taken every second for a period of 4 minutes. […] Statistical differences are obtained using One Way ANOVA with Tukey Post-hoc test; statistical significance is defined as P≦0.05.
(§2) The Maximum RFU obtained with a given concentration of aromatic alcohol is compared with the Maximum RFU obtained using the same concentration of aromatic alcohol but pretreated with the TRPV-1 antagonist for 5 minutes after dye incubation. Percent inhibition achieved with the TRPV-1 antagonist is calculated as: 100*((Maximum RFU of aromatic alcohol−Maximum RFU of aromatic alcohol pretreated with TRPV-1 antagonist)/Maximum RFU of aromatic alcohol).
(§3) Capsazepine and AMG9810 were tested for activity as TRPV-1 antagonists using the Calcium Flux Test using two different concentrations of phenoxyethanol in DMSO. They were also tested using the Calcium Flux Test in which phenoxyethanol was replaced with capsaicin. […]

[2] = molecular target: T1, human vanilloid receptor-1 (TRPV-1); assay: Calcium Flux Test, phenoxyethanol replaced with capsaicin (capsaicin-induced calcium flux)
Method: as §1, §2, §3

[3] = molecular target: T1, human vanilloid receptor-1 (TRPV-1); assay: Calcium Flux Test, inhibition of benzyl alcohol-induced calcium flux; conditions: 10 uM capsazepine
Method: as §1, §2
Capsazepine was tested for activity as a TRPV-1 antagonist with different concentrations of benzyl alcohol in DMSO as described in Example 2. […]

[4] = molecular target: T1, human vanilloid receptor-1 (TRPV-1); assay: Calcium Flux Test, inhibition of phenethyl alcohol-induced calcium flux; conditions: 10 uM capsazepine; for inhibition at 10 µM: read-out: (column without head; percent inhibition)
Method: as §1, §2
Capsazepine was tested for activity as a TRPV-1 antagonist with different concentrations of phenethyl alcohol in DMSO as described in Example 2. […]

[5] = capsazepine 0.6104 nM, phenoxyethanol 2 mM
[6] = capsazepine 0.6104 nM, phenoxyethanol 3 mM
[7] = capsazepine 2 nM, phenoxyethanol 2 mM
[8] = capsazepine 10 nM, phenoxyethanol 2 mM
[9] = capsazepine 10 nM, phenoxyethanol 3 mM
[10] = capsazepine 39 nM, phenoxyethanol 2 mM
[11] = capsazepine 39 nM, phenoxyethanol 3 mM
[12] = capsazepine 156 nM, phenoxyethanol 2 mM
[13] = capsazepine 156 nM, phenoxyethanol 3 mM
[14] = capsazepine 625 nM, phenoxyethanol 2 mM
[15] = capsazepine 625 nM, phenoxyethanol 3 mM
[16] = capsazepine 2500 nM, phenoxyethanol 2 mM
[17] = capsazepine 2500 nM, phenoxyethanol 3 mM
[18] = capsazepine 10000 nM, phenoxyethanol 2 mM
[19] = capsazepine 10000 nM, phenoxyethanol 3 mM
[20] = capsazepine 2 nM, capsaicin 300 nM
[21] = capsazepine 10 nM, capsaicin 100 nM
[22] = capsazepine 10 nM, capsaicin 300 nM
[23] = capsazepine 39 nM, capsaicin 100 nM
[24] = capsazepine 39 nM, capsaicin 300 nM
[25] = capsazepine 156 nM, capsaicin 100 nM
[26] = capsazepine 156 nM, capsaicin 300 nM
[27] = capsazepine 625 nM, capsaicin 100 nM
[28] = capsazepine 625 nM, capsaicin 300 nM
[29] = capsazepine 2500 nM, capsaicin 100 nM
[30] = capsazepine 2500 nM, capsaicin 300 nM
[31] = capsazepine 10000 nM, capsaicin 100 nM
[32] = capsazepine 10000 nM, capsaicin 300 nM

Structure (SMILES): Oc1cc2c(cc1O)CN(C(=S)NCCc1ccc(Cl)cc1)CCC2 [Capsazepine, capsazepine]
- Maximum RFU (mean ± SD) ([1]; capsazepine 0.1526 nM, phenoxyethanol 2 mM): 319.33 ± 77.43 RFU
- Maximum RFU (mean ± SD) ([1]; capsazepine 0.1526 nM, phenoxyethanol 3 mM): 508.45 ± 81.79 RFU
- Maximum RFU (mean ± SD) [1, 5]: 210.03 ± 46.34 RFU
- inhibition at 0.0006104 µM [1, 5]: 26.8%
- Maximum RFU (mean ± SD) [1, 6]: 351.36 ± 32.21 RFU
- inhibition at 0.0006104 µM [1, 6]: 20.5%
- Maximum RFU (mean ± SD) [1, 7]: 236.10 ± 8.91 RFU
- inhibition at 0.002 µM [1, 7]: 17.7%
- Maximum RFU (mean ± SD) ([1]; capsazepine 2 nM, phenoxyethanol 3 mM): 486.75 ± 153.02 RFU
- Maximum RFU (mean ± SD) [1, 8]: 154.95 ± 19.56 RFU
- inhibition at 0.01 µM [1, 8]: 46%
- Maximum RFU (mean ± SD) [1, 9]: 340.96 ± 12.96 RFU
- inhibition at 0.01 µM [1, 9]: 22.8%
- Maximum RFU (mean ± SD) [1, 10]: 75.06 ± 6.64 RFU
- inhibition at 0.039 µM [1, 10]: 73.8%
- Maximum RFU (mean ± SD) [1, 11]: 176.52 ± 75.37 RFU
- inhibition at 0.039 µM [1, 11]: 60%
- Maximum RFU (mean ± SD) [1, 12]: 87.54 ± 8.38 RFU
- inhibition at 0.156 µM [1, 12]: 69.5%
- Maximum RFU (mean ± SD) [1, 13]: 101.59 ± 2.44 RFU
- inhibition at 0.156 µM [1, 13]: 77%
- Maximum RFU (mean ± SD) [1, 14]: 57.76 ± 2.15 RFU
- inhibition at 0.625 µM [1, 14]: 79.9%
- Maximum RFU (mean ± SD) [1, 15]: 75.71 ± 3.39 RFU
- inhibition at 0.625 µM [1, 15]: 82.9%
- Maximum RFU (mean ± SD) [1, 16]: 84.79 ± 2.68 RFU
- inhibition at 2.5 µM [1, 16]: 70.5%
- Maximum RFU (mean ± SD) [1, 17]: 99.71 ± 6.08 RFU
- inhibition at 2.5 µM [1, 17]: 77.4%
- Maximum RFU (mean ± SD) [1, 18]: 79.39 ± 2.79 RFU
- inhibition at 10 µM [1, 18]: 72.3%
- Maximum RFU (mean ± SD) [1, 19]: 106.49 ± 4.15 RFU
- inhibition at 10 µM [1, 19]: 75.9%
- Maximum RFU (mean ± SD) ([2]; capsazepine 2 nM, capsaicin 100 nM): 665.83 ± 90.25 RFU
- Maximum RFU (mean ± SD) [2, 20]: 850.93 ± 28.65 RFU
- inhibition at 0.002 µM [2, 20]: 1.16%
- Maximum RFU (mean ± SD) [2, 21]: 461.29 ± 221.27 RFU
- inhibition at 0.01 µM [2, 21]: 28.7%
- Maximum RFU (mean ± SD) [2, 22]: 771.64 ± 25.92 RFU
- inhibition at 0.01 µM [2, 22]: 10.4%
- Maximum RFU (mean ± SD) [2, 23]: 187.95 ± 177.88 RFU
- inhibition at 0.039 µM [2, 23]: 71%
- Maximum RFU (mean ± SD) [2, 24]: 557.38 ± 79.48 RFU
- inhibition at 0.039 µM [2, 24]: 35.3%
- Maximum RFU (mean ± SD) [2, 25]: 29.36 ± 6.46 RFU
- inhibition at 0.156 µM [2, 25]: 95.5%
- Maximum RFU (mean ± SD) [2, 26]: 51.20 ± 14.34 RFU
- inhibition at 0.156 µM [2, 26]: 94%
- Maximum RFU (mean ± SD) [2, 27]: 24.39 ± 5.19 RFU
- inhibition at 0.625 µM [2, 27]: 96.2%
- Maximum RFU (mean ± SD) [2, 28]: 28.36 ± 3.16 RFU
- inhibition at 0.625 µM [2, 28]: 96.7%
- Maximum RFU (mean ± SD) [2, 29]: 27.61 ± 4.95 RFU
- inhibition at 2.5 µM [2, 29]: 95.7%
- Maximum RFU (mean ± SD) [2, 30]: 31.08 ± 3.44 RFU
- inhibition at 2.5 µM [2, 30]: 96.4%
- Maximum RFU (mean ± SD) [2, 31]: 45.31 ± 14.17 RFU
- inhibition at 10 µM [2, 31]: 93%
- Maximum RFU (mean ± SD) [2, 32]: 58.73 ± 4.40 RFU
- inhibition at 10 µM [2, 32]: 93.2%
- Maximum RFU ([3]; benzyl alcohol 0 % w/v): 13.30 RFU and 18.24 ± 1.3 RFU
- Maximum RFU ([3]; benzyl alcohol 0.00000199 % w/v): 11.32 RFU and 18.74 ± 2.18 RFU
- Maximum RFU ([3]; benzyl alcohol 0.00000598 % w/v): 9.46 RFU and 16.77 ± 1.48 RFU
- Maximum RFU ([3]; benzyl alcohol 0.0000538 % w/v): 10.90 RFU and 18.44 ± 0.07 RFU
- Maximum RFU ([3]; benzyl alcohol 0.001452 % w/v): 11.63 RFU and 15.7 ± 2.1 RFU
- % Inhibition ([3]; benzyl alcohol 0.004357 % w/v): 72.51%
- Maximum RFU ([3]; benzyl alcohol 0.004357 % w/v): 8.14 RFU and 15.33 ± 1 RFU
- inhibition at 10 µM ([3]; benzyl alcohol 0.004357 % w/v): 74.2%
- % Inhibition ([3]; benzyl alcohol 0.013072 % w/v): 82.58%
- inhibition at 10 µM ([3]; benzyl alcohol 0.013072 % w/v): 88.8%
- % Inhibition ([3]; benzyl alcohol 0.04 % w/v): 93.23%
- Maximum RFU ([3]; benzyl alcohol 0.04 % w/v): 18.82 RFU and 28.72 ± 1.5 RFU
- inhibition at 10 µM ([3]; benzyl alcohol 0.04 % w/v): 95.4%
- Maximum RFU ([3]; benzyl alcohol 6.64E−07 % w/v): 11.79 RFU and 18.24 ± 2.53 RFU
- Maximum RFU ([4]; phenethyl alcohol 0 % w/v): 13.44 RFU and 17.46 ± 0.4 RFU
- Maximum RFU ([4]; phenethyl alcohol 0.000002 % w/v): 12.76 RFU and 18.03 ± 3.35 RFU
- Maximum RFU ([4]; phenethyl alcohol 0.000006 % w/v): 13.70 RFU and 18 ± 0.75 RFU
- Maximum RFU ([4]; phenethyl alcohol 0.000018 % w/v): 13.60 RFU and 18.18 ± 0.59 RFU
- Maximum RFU ([4]; phenethyl alcohol 0.00016 % w/v): 11.64 RFU and 19.48 ± 0.51 RFU
- Maximum RFU ([4]; phenethyl alcohol 0.00048 % w/v): 11.71 RFU and 20.58 ± 0.6 RFU
- Maximum RFU ([4]; phenethyl alcohol 0.0015 % w/v): 11.68 RFU and 18.5 ± 0.5 RFU
- inhibition at 10 µM ([4]; phenethyl alcohol 0.0015 % w/v): 54.3%
- (column without head; percent inhibition) ([4]; phenethyl alcohol 0.0044 % w/v): 56.15% and 80.22%
- Maximum RFU ([4]; phenethyl alcohol 0.0044 % w/v): 11.56 RFU and 15.66 ± 0.4 RFU
- (column without head; percent inhibition) ([4]; phenethyl alcohol 0.013 % w/v): 93.84%
- inhibition at 10 µM ([4]; phenethyl alcohol 0.013 % w/v): 96.3%
- (column without head; percent inhibition) ([4]; phenethyl alcohol 0.04 % w/v): 91.52%
- Maximum RFU ([4]; phenethyl alcohol 0.04 % w/v): 26.42 RFU and 39.89 ± 5.81 RFU
- inhibition at 10 µM ([4]; phenethyl alcohol 0.04 % w/v): 94%
- (column without head; percent inhibition) ([4]; phenethyl alcohol 0.12 % w/v): 37.18%
- Maximum RFU ([4]; phenethyl alcohol 0.12 % w/v): 345.95 RFU and 364.66 ± 13.76 RFU
- inhibition at 10 µM ([4]; phenethyl alcohol 0.12 % w/v): 42.9%
